Patent publication US12077503B2, “Substituted cyclic amides and their use as herbicides” (FMC CORPORATION, priority 2015, dated 2024)

Experiments:
Assay type in all cases: in vivo
[1] = tested on: rice (Oryra sativa); assay: Test B flooded paddy test; conditions: Flood, 250 g ai/ha; 0 to 100 scale where 0 is no effect and 100 is complete control; 13 to 15 d
Outline: (§1)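 Flooding to 3 cm over soil accompanied treatment, which consisted of adding compound to the standing water around 2-leaf plants; depth was then maintained. Visual assessment versus controls followed at 13 to 15 d (scale 0–100, 0 meaning no effect).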

[2] = tested on: ducksalad (Heteranthera limosa); assay: Test B flooded paddy test; conditions: Flood, 250 g ai/ha; 0 to 100 scale where 0 is no effect and 100 is complete control; 13 to 15 d
Outline: as §1

[3] = tested on: sedge, umbrella (small-flower umbrella sedge, Cyperus difformis); assay: Test B flooded paddy test; conditions: Flood, 250 g ai/ha; 0 to 100 scale where 0 is no effect and 100 is complete control; 13 to 15 d
Outline: as §1

[4] = tested on: barnyardgrass (Echinochloa crus-galli); assay: Test B flooded paddy test; conditions: Flood, 250 g ai/ha; 0 to 100 scale where 0 is no effect and 100 is complete control; 13 to 15 d
Outline: as §1

[5] = tested on: Kochia (Kochia scoparia); assay: Test A postemergence; conditions: postemergence; for Kochia plant response rating: 125 g ai/ha, visual injury rating on 0 to 100 scale (0 no effect, 100 complete control), approx. 10 d; for Plant response rating, Kochia: 500 g ai/ha, 0 to 100 scale, 0 no effect, 100 complete control
Outline: (§2)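 Compounds were formulated in a non-phytotoxic solvent mixture with surfactant and applied as a preemergence directed soil spray after seeding, or sprayed postemergence over plants 2 to 10 cm tall at the one- to two-leaf stage. Evaluation after about 10 d compared treated with untreated controls, using a scale from 0 (no effect) to 100 (complete control).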

[6] = tested on: wheat (Triticum aestivum); assay: Test A postemergence; conditions: postemergence; for Wheat plant response rating: 125 g ai/ha, visual injury rating on 0 to 100 scale (0 no effect, 100 complete control), approx. 10 d; for Plant response rating, Wheat: 500 g ai/ha, 0 to 100 scale, 0 no effect, 100 complete control
Outline: as §2

[7] = tested on: pigweed (Amaranthus retroflexus); assay: Test A postemergence; conditions: postemergence; for Pigweed plant response rating: 125 g ai/ha, visual injury rating on 0 to 100 scale (0 no effect, 100 complete control), approx. 10 d; for Plant response rating, Pigweed: 500 g ai/ha, 0 to 100 scale, 0 no effect, 100 complete control
Outline: as §2

[8] = tested on: blackgrass (Alopecurus myosuroides); assay: Test A postemergence; conditions: postemergence; for Blackgrass plant response rating: 125 g ai/ha, visual injury rating on 0 to 100 scale (0 no effect, 100 complete control), approx. 10 d; for Plant response rating, Blackgrass: 500 g ai/ha, 0 to 100 scale, 0 no effect, 100 complete control
Outline: as §2

[9] = tested on: Galium (catchweed bedstraw, Galium aparine); assay: Test A postemergence; conditions: postemergence; for Galium plant response rating: 125 g ai/ha, visual injury rating on 0 to 100 scale (0 no effect, 100 complete control), approx. 10 d; for Plant response rating, Galium: 500 g ai/ha, 0 to 100 scale, 0 no effect, 100 complete control
Outline: as §2

[10] = tested on: ryegrass, Italian (Italian ryegrass, Lolium multiflorum); assay: Test A postemergence; conditions: postemergence; for Ryegrass, Italian plant response rating: 125 g ai/ha, visual injury rating on 0 to 100 scale (0 no effect, 100 complete control), approx. 10 d; for Plant response rating, Ryegrass, Italian: 500 g ai/ha, 0 to 100 scale, 0 no effect, 100 complete control
Outline: as §2

[11] = tested on: giant foxtail (Setaria faberii); assay: Test A postemergence; conditions: postemergence; for Foxtail, Giant plant response rating: 125 g ai/ha, visual injury rating on 0 to 100 scale (0 no effect, 100 complete control), approx. 10 d; for Plant response rating, Foxtail, Giant: 500 g ai/ha, 0 to 100 scale, 0 no effect, 100 complete control
Outline: as §2

[12] = tested on: ragweed (common ragweed, Ambrosia elatior); assay: Test A postemergence; conditions: postemergence; for Ragweed plant response rating: 125 g ai/ha, visual injury rating on 0 to 100 scale (0 no effect, 100 complete control), approx. 10 d; for Plant response rating, Ragweed: 500 g ai/ha, 0 to 100 scale, 0 no effect, 100 complete control
Outline: as §2

[13] = tested on: corn (Zea mays); assay: Test A postemergence; conditions: postemergence; for Corn plant response rating: 125 g ai/ha, visual injury rating on 0 to 100 scale (0 no effect, 100 complete control), approx. 10 d; for Plant response rating, Corn: 500 g ai/ha, 0 to 100 scale, 0 no effect, 100 complete control
Outline: as §2

[14] = tested on: barnyardgrass (Echinochloa crus-galli); assay: Test A postemergence; conditions: postemergence; for Barnyardgrass plant response rating: 125 g ai/ha, visual injury rating on 0 to 100 scale (0 no effect, 100 complete control), approx. 10 d; for Plant response rating, Barnyardgrass: 500 g ai/ha, 0 to 100 scale, 0 no effect, 100 complete control
Outline: as §2

[15] = tested on: pigweed (Amaranthus retroflexus); assay: Test C preemergence; conditions: scale 0 to 100, 0 no effect, 100 complete control
Description: Seeds of plant species selected from blackgrass (Alopecurus myosuroides), ryegrass, Italian (Italian ryegrass, Lolium multiflorum), wheat (winter wheat, Triticum aestivum), Galium (catchweed bedstraw, Galium aparine), corn (Zea mays), crabgrass, large (large crabgrass, Digitaria sanguinalis), foxtail, giant (giant foxtail, Setaria faberii), johnsongrass (Sorghum halepense), lambsquarters (Chenopodium album), morningglory (Ipomoea coccinea), nutsedge, yellow (yellow nutsedge, Cyperus esculentus), pigweed (Amaranthus retroflexus), ragweed (common ragweed, Ambrosia elatior), soybean (Glycine max), barnyardgrass (Echinochloa crus-galli), oilseed rape (Brassica napus), waterhemp (common waterhemp, Amaranthus rudis) and velvetleaf (Abutilon theophrasti) were planted into a blend of loam soil and sand and treated preemergence with test chemicals formulated in a non-phytotoxic solvent mixture which included a surfactant.
At the same time, plants selected from these crop and weed species and also Kochia (Kochia scoparia), oat, wild (wild oat, Avena fatua), and chickweed (common chickweed, Stellaria media) were planted in pots containing Sunshine Redi-Earth® planting medium comprising spaghnum peat moss, vermiculite, starter nutrients and dolomitic limestone and treated with postemergence applications of test chemicals formulated in the same manner. Plants ranged in height from 2 to 18 cm (1- to 4-leaf stage) for postemergence treatments. Treated plants and controls were maintained in a greenhouse for 13 to 15 d, after which time all species were compared to controls and visually evaluated. Plant response ratings, summarized in Table C, are based on a scale of 0 to 100 where 0 is no effect and 100 is complete control. A dash (-) response means no test result.

[16] = tested on: Kochia (Kochia scoparia); assay: Test A preemergence; conditions: for Plant response rating, Kochia: 125 g ai/ha, preemergence, 0 to 100 scale (0 no effect, 100 complete control); for Kochia plant response rating (0 to 100 scale, 0 is no effect, 100 is complete control): Preemergence, 500 g ai/ha, visual injury approx. 10 d
Outline: as §2

[17] = tested on: pigweed (Amaranthus retroflexus); assay: Test A preemergence; conditions: for Plant response rating, Pigweed: 125 g ai/ha, preemergence, 0 to 100 scale (0 no effect, 100 complete control); for Pigweed plant response rating (0 to 100 scale, 0 is no effect, 100 is complete control): Preemergence, 500 g ai/ha, visual injury approx. 10 d
[18] = tested on: ryegrass, Italian (Italian ryegrass, Lolium multiflorum); assay: Test A preemergence; conditions: for Plant response rating, Ryegrass, Italian: 125 g ai/ha, preemergence, 0 to 100 scale (0 no effect, 100 complete control); for Ryegrass, Italian plant response rating (0 to 100 scale, 0 is no effect, 100 is complete control): Preemergence, 500 g ai/ha, visual injury approx. 10 d
Outline: as §2

[19] = tested on: giant foxtail (Setaria faberii); assay: Test A preemergence; conditions: for Plant response rating, Foxtail, Giant: 125 g ai/ha, preemergence, 0 to 100 scale (0 no effect, 100 complete control); for Foxtail, Giant plant response rating (0 to 100 scale, 0 is no effect, 100 is complete control): Preemergence, 500 g ai/ha, visual injury approx. 10 d
Outline: as §2

[20] = tested on: ragweed (common ragweed, Ambrosia elatior); assay: Test A preemergence; conditions: for Plant response rating, Ragweed: 125 g ai/ha, preemergence, 0 to 100 scale (0 no effect, 100 complete control); for Ragweed plant response rating (0 to 100 scale, 0 is no effect, 100 is complete control): Preemergence, 500 g ai/ha, visual injury approx. 10 d
Outline: as §2

[21] = tested on: barnyardgrass (Echinochloa crus-galli); assay: Test A preemergence; conditions: for Plant response rating, Barnyardgrass: 125 g ai/ha, preemergence, 0 to 100 scale (0 no effect, 100 complete control); for Barnyardgrass plant response rating (0 to 100 scale, 0 is no effect, 100 is complete control): Preemergence, 500 g ai/ha, visual injury approx. 10 d
Outline: as §2

Structure (SMILES)	Plant response rating, Rice [1]	Plant response rating, Ducksalad [2]	Plant response rating, Sedge, Umbrella [3]	Plant response rating, Barnyardgrass [4]	Kochia plant response rating [5]	Plant response rating, Kochia [5]	Wheat plant response rating [6]	Plant response rating, Wheat [6]	Pigweed plant response rating [7]	Plant response rating, Pigweed [7]	Blackgrass plant response rating [8]	Plant response rating, Blackgrass [8]	Galium plant response rating [9]	Plant response rating, Galium [9]	Ryegrass, Italian plant response rating [10]	Plant response rating, Ryegrass, Italian [10]	Foxtail, Giant plant response rating [11]	Plant response rating, Foxtail, Giant [11]	Ragweed plant response rating [12]	Plant response rating, Ragweed [12]	other results
CN1CC(c2ccc(C(F)(F)F)c(F)c2)C(C(=O)Nc2ccccc2S(C)(=O)=O)C1=O (centres unmarked) [Compound 397]	0	75	0	65	20	50	40	50	40	70	60	70	60	60	40	60	70	80	0	20	Corn plant response rating [13]: 50; Plant response rating, Corn [13]: 70; Barnyardgrass plant response rating [14]: 70; Plant response rating, Barnyardgrass [14]: 90; Plant response rating, Pigweed ([15]; 31 g ai/ha): 55; Plant response rating, Pigweed ([15]; 62 g ai/ha): 90; Plant response rating, Pigweed ([15]; 125 g ai/ha): 95; Plant response rating, Pigweed ([15]; 250 g ai/ha): 95; Plant response rating, Kochia [16]: 70; Kochia plant response rating (0 to 100 scale, 0 is no effect, 100 is complete control) [16]: 90; Plant response rating, Pigweed [17]: 90; Pigweed plant response rating (0 to 100 scale, 0 is no effect, 100 is complete control) [17]: 90; Plant response rating, Ryegrass, Italian [18]: 30; Ryegrass, Italian plant response rating (0 to 100 scale, 0 is no effect, 100 is complete control) [18]: 70; Plant response rating, Foxtail, Giant [19]: 90; Foxtail, Giant plant response rating (0 to 100 scale, 0 is no effect, 100 is complete control) [19]: 90; Plant response rating, Ragweed [20]: 50; Ragweed plant response rating (0 to 100 scale, 0 is no effect, 100 is complete control) [20]: 70; Plant response rating, Barnyardgrass [21]: 80; Barnyardgrass plant response rating (0 to 100 scale, 0 is no effect, 100 is complete control) [21]: 90
CN1CC(c2ccc(C(F)(F)F)cc2)C(C(=S)Nc2ccccc2F)C1=O (centres unmarked) [Compound 450]	0	75	0	45	20	50	0	30	50	60	20	40	50	60	0	50	80	80	20	30	Corn plant response rating [13]: 20; Plant response rating, Corn [13]: 60; Barnyardgrass plant response rating [14]: 80; Plant response rating, Barnyardgrass [14]: 90; Plant response rating, Pigweed ([15]; 31 g ai/ha): 55; Plant response rating, Pigweed ([15]; 62 g ai/ha): 60; Plant response rating, Pigweed ([15]; 125 g ai/ha): 80; Plant response rating, Pigweed ([15]; 250 g ai/ha): 80; Plant response rating, Kochia [16]: 50; Kochia plant response rating (0 to 100 scale, 0 is no effect, 100 is complete control) [16]: 80; Plant response rating, Pigweed [17]: 70; Pigweed plant response rating (0 to 100 scale, 0 is no effect, 100 is complete control) [17]: 80; Plant response rating, Ryegrass, Italian [18]: 0; Ryegrass, Italian plant response rating (0 to 100 scale, 0 is no effect, 100 is complete control) [18]: 40; Plant response rating, Foxtail, Giant [19]: 90; Foxtail, Giant plant response rating (0 to 100 scale, 0 is no effect, 100 is complete control) [19]: 90; Plant response rating, Ragweed [20]: 20; Ragweed plant response rating (0 to 100 scale, 0 is no effect, 100 is complete control) [20]: 70; Plant response rating, Barnyardgrass [21]: 90; Barnyardgrass plant response rating (0 to 100 scale, 0 is no effect, 100 is complete control) [21]: 90
Cc1ccc(C2CN(C)C(=O)C2C(=O)Nc2cccc(F)c2F)cc1F (centres unmarked) [Compound 464]	20	100	0	70	50	60	70	70	40	50	60	70	60	70	70	80	90	90	30	30	Corn plant response rating [13]: 90; Plant response rating, Corn [13]: 90; Barnyardgrass plant response rating [14]: 90; Plant response rating, Barnyardgrass [14]: 90; Plant response rating, Pigweed ([15]; 31 g ai/ha): 45; Plant response rating, Pigweed ([15]; 62 g ai/ha): 45; Plant response rating, Pigweed ([15]; 125 g ai/ha): 60; Plant response rating, Pigweed ([15]; 250 g ai/ha): 70; Plant response rating, Kochia [16]: 70; Kochia plant response rating (0 to 100 scale, 0 is no effect, 100 is complete control) [16]: 80; Plant response rating, Pigweed [17]: 70; Pigweed plant response rating (0 to 100 scale, 0 is no effect, 100 is complete control) [17]: 70; Plant response rating, Ryegrass, Italian [18]: 70; Ryegrass, Italian plant response rating (0 to 100 scale, 0 is no effect, 100 is complete control) [18]: 90; Plant response rating, Foxtail, Giant [19]: 90; Foxtail, Giant plant response rating (0 to 100 scale, 0 is no effect, 100 is complete control) [19]: 90; Plant response rating, Ragweed [20]: 50; Plant response rating, Barnyardgrass [21]: 90; Barnyardgrass plant response rating (0 to 100 scale, 0 is no effect, 100 is complete control) [21]: 90
